Laboratory results: patent US7615359B2, “Copolymer 1 related polypeptides for use as molecular weight markers and for therapeutic use” (Yeda Research and Development Co., Ltd., priority 1998, dated 2009)
One block for each molecule: values may come before it.

Tests used:
[1] = system: experimental allergic encephalomyelitis (EAE) in (SJL/JxBALB/c)FI mice; test: Blocking of experimental allergic encephalomyelitis (EAE) by injection with complete adjuvant; type: in vivo, mouse; conditions: for Incidence of EAE: antigen included in the encephalitogenic inoculum, animals with EAE/animals; for % Blocking: blocking of EAE vs control inoculum; for Mean Score: disease score 0 (healthy) to 5 (dead); for Mean Onset: animals not protected, onset = day of disease score of at least 1
Source text: Blocking of Experimental Allergic Encephalomyelitis—To test the physiological activity of TV-markers, protection from experimental allergic encephalomyelitis (EAE) was investigated in mice. Injection of Copolymer 1 in complete Freund's adjuvant together with the encephalitogen can block EAE essentially as described in Aharoni et al., 17 EUR. J. IMMUNOL. 23 (1993). Other researchers have observed that the therapeutic effect of Copolymer 1 in multiple sclerosis patients is also associated with the induction of TH2 cells. Lahat et al., 244 J. NEUROL. 129 (1997). In this example, EAE is blocked by different polypeptides of the present invention.
Pertussis toxin (0.25 ml, 250 ng, Sigma) is injected intravenously, immediately after and 48 hr later. […] 2156 (1979).
EAE blocking by injection with complete adjuvant—Each antigen being tested was included in the encephalitogenic inoculum. […] Also shown is the mean onset of EAE in animals which were not protected. Disease intensity is scored daily in mice with a score of zero (0=healthy) to five (5=dead).

[2] = system: anti-Cop-1 (5-7-2) monoclonal antibody; test: RIA: binding of anti-Cop 1 monoclonal antibody to coated antigen; conditions: relative to Cop 1 reference standard; 2 µg/ml coating antigen
[3] = system: BALB/c-Ts-Cop-1 T cell line; test: Proliferation of Cop 1 specific T cell line (3H-thymidine uptake); conditions: 10 µg antigen; relative to Cop 1
L-22-1 T cell clone = test: as above; conditions: 10 µg antigen; relative to Cop 1
[4] = system: anti-Cop-1 (3-3-9) monoclonal antibody; test: RIA: binding of anti-Cop 1 monoclonal antibody to coated antigen; conditions: relative to Cop 1 reference standard; 2 µg/ml coating antigen
[5] = system: anti-Cop-1 (3-1-45) monoclonal antibody; test: as above; conditions: relative to Cop 1 reference standard; 2 µg/ml coating antigen
[6] = system: SC-103 human Cop 1 specific T cell clone; test: Proliferation of Cop 1 specific T cell line (3H-thymidine uptake); conditions: 10 µg antigen; relative to Cop 1

Molecule: AKKYAKKAKAEKAKKAYKAAEAKKAAKYEKAAAEKAAAKEAAYEA [TV-45]
- Incidence of EAE [1]: 0/10
- % Blocking [1]: 100%

- Binding of mAb anti-Cop-1 (5-7-2), % Cop1 binding [2]: 1%
- Binding of mAb anti-Cop-1 (3-3-9), % Cop1 binding [4]: 0%
- Binding of mAb anti-Cop-1 (3-1-45), % Cop1 binding [5]: 0%
Molecule: AKKYAKKEKAAKKAYKKEAKAKAAEAAAKEAAYEA [TV-35]
- 3H-Thymidine incorporation, % Cop1, BALB/c-Ts-Cop-1 [3]: 28%
- 3H-Thymidine incorporation, % Cop1, L-22-1 (L-22-1 T cell clone): 0%
- 3H-Thymidine incorporation, % Cop1, SC-103 [6]: 0%

- Binding of mAb anti-Cop-1 (5-7-2), % Cop1 binding [2]: 86%
- Binding of mAb anti-Cop-1 (3-3-9), % Cop1 binding [4]: 90%
- Binding of mAb anti-Cop-1 (3-1-45), % Cop1 binding [5]: 85%
Molecule: glatiramer acetate [compound 55396, reference compound]
- 3H-Thymidine incorporation, % Cop1, BALB/c-Ts-Cop-1 [3]: 105%
- 3H-Thymidine incorporation, % Cop1, L-22-1 (L-22-1 T cell clone): 105%
- Incidence of EAE [1]: 0/10
- % Blocking [1]: 100%
- Mean Score [1]: 0
- 3H-Thymidine incorporation, % Cop1, SC-103 [6]: 80%

Molecule: AKKYAKKEKAYAKKAEKAAKKAEAKAYKAAEAKKKAEAKYKAEAAKAAAKEAAYEA [TV-56]
- Binding of mAb anti-Cop-1 (5-7-2), % Cop1 binding [2]: 91%
- 3H-Thymidine incorporation, % Cop1, BALB/c-Ts-Cop-1 [3]: 59%
- 3H-Thymidine incorporation, % Cop1, L-22-1 (L-22-1 T cell clone): 0%
- Binding of mAb anti-Cop-1 (3-3-9), % Cop1 binding [4]: 2%
- Binding of mAb anti-Cop-1 (3-1-45), % Cop1 binding [5]: 6%
- 3H-Thymidine incorporation, % Cop1, SC-103 [6]: 0%

Molecule: glatiramer acetate [compound 03494, reference compound]
- Incidence of EAE [1]: 0/10
- % Blocking [1]: 100%
- Mean Score [1]: 0

- Binding of mAb anti-Cop-1 (5-7-2), % Cop1 binding [2]: 82%
- Binding of mAb anti-Cop-1 (3-3-9), % Cop1 binding [4]: 91%
- Binding of mAb anti-Cop-1 (3-1-45), % Cop1 binding [5]: 83%
Molecule: glatiramer acetate [compound 55296, reference compound]
- 3H-Thymidine incorporation, % Cop1, BALB/c-Ts-Cop-1 [3]: 110%
- 3H-Thymidine incorporation, % Cop1, L-22-1 (L-22-1 T cell clone): 106%
- 3H-Thymidine incorporation, % Cop1, SC-103 [6]: 81%

B1: AKKYAKKAEKAYAKKAKAAKEKKAYAKKEAKAYKAAEAKKKAKAEAKKYAKEAAKAKKEAYKAEAKKYAKAAKAEKKEYAAAEAKKAEAAKAYKAEAAKAAAKEAAYEA (peptide)
chain: AKKYAKKAEKAYAKKAKAAKEKKAYAKKEAKAYKAAEAKKKAKAEAKKYAKEAAKAKKEAYKAEAKKYAKAAKAEKKEYAAAEAKKAEAAKAYKAEAAKAAAKEAAYEA
notes: reversed-phase fraction 2 designated TV-109
- Incidence of EAE [1]: 0/10
- % Blocking [1]: 100%

- Binding of mAb anti-Cop-1 (5-7-2), % Cop1 binding [2]: 37%
- Binding of mAb anti-Cop-1 (3-3-9), % Cop1 binding [4]: 6%
- Binding of mAb anti-Cop-1 (3-1-45), % Cop1 binding [5]: 9%
B2: AKKYAKKEKAYAKKAEKAAKKAEAKAYKAAEAKKKAKAEAKKYAKAAKAEKKEYAAAEAKYKAEAAKAAAKEAAYEA (peptide)
chain: AKKYAKKEKAYAKKAEKAAKKAEAKAYKAAEAKKKAKAEAKKYAKAAKAEKKEYAAAEAKYKAEAAKAAAKEAAYEA
- 3H-Thymidine incorporation, % Cop1, BALB/c-Ts-Cop-1 [3]: 52%
- 3H-Thymidine incorporation, % Cop1, L-22-1 (L-22-1 T cell clone): 1%
- Mean Onset [1]: 14.0 days
- Incidence of EAE [1]: 1/9
- % Blocking [1]: 89%
- 3H-Thymidine incorporation, % Cop1, SC-103 [6]: 0%

- Binding of mAb anti-Cop-1 (5-7-2), % Cop1 binding [2]: 76%
- Binding of mAb anti-Cop-1 (3-3-9), % Cop1 binding [4]: 2%
- Binding of mAb anti-Cop-1 (3-1-45), % Cop1 binding [5]: 6%
B3: AKKYAKKEKAYAKKAEKAAKKAEAKAYKAAEAKKKAKAEAKKYAKAAKAEKKEYAAAEAKYKAEAAKKAYKAEAAKAAAKEAAYEA (peptide)
chain: AKKYAKKEKAYAKKAEKAAKKAEAKAYKAAEAKKKAKAEAKKYAKAAKAEKKEYAAAEAKYKAEAAKKAYKAEAAKAAAKEAAYEA
- 3H-Thymidine incorporation, % Cop1, BALB/c-Ts-Cop-1 [3]: 44%
- 3H-Thymidine incorporation, % Cop1, L-22-1 (L-22-1 T cell clone): 1%
- Mean Onset [1]: 12.0 days
- Incidence of EAE [1]: 3/10
- % Blocking [1]: 70%
- 3H-Thymidine incorporation, % Cop1, SC-103 [6]: 0%

B4: AKKYAKKEKAYAKAKKAEAKAAKKAKAEAKKYAKAAKAEKKEYAAAEAKYKAEAAKAAAKEAAYEA (peptide)
chain: AKKYAKKEKAYAKAKKAEAKAAKKAKAEAKKYAKAAKAEKKEYAAAEAKYKAEAAKAAAKEAAYEA
- Mean Onset [1]: 11.7 days
- Incidence of EAE [1]: 6/10
- % Blocking [1]: 40%
